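The compound was tested at five concentrations on cells cultured in 96-well plates, with a 48-hour exposure period. TGI: total growth inhibition.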
Columns and labels:
Experiment in all cases: DTP human tumour cell line panel, 48 h
[1] = test system: MALME-3M melanoma
[2] = test system: NCI-H460 lung
[3] = test system: U251 CNS
[4] = test system: SF-268 CNS
[5] = test system: ACHN renal
[6] = test system: HCC-2998 colon
[7] = test system: SF-539 CNS
[8] = test system: OVCAR-3 ovarian
[9] = test system: M19-MEL melanoma
[10] = test system: RXF-631 renal
[11] = test system: RXF 393 renal
[12] = test system: IGROV1 ovarian
[13] = test system: LXFL 529 NSCLC
[14] = test system: OVCAR-8 ovarian
[15] = test system: SW-620 colon
[16] = test system: SF-295 CNS
[17] = test system: HOP-92 NSCLC
[18] = test system: SK-MEL-5 melanoma
[19] = test system: SK-MEL-28 melanoma
[20] = test system: KM20L2 colon
[21] = test system: A498 renal
[22] = test system: OVCAR-4 ovarian
[23] = test system: OVCAR-5 ovarian
[24] = test system: UACC-257 melanoma
[25] = test system: HL-60(TB) leukemia
[26] = test system: M14 melanoma
[27] = test system: SNB-78 CNS
[28] = test system: HOP-62 NSCLC
[29] = test system: TK-10 renal
[30] = test system: RPMI-8226 leukemia
[31] = test system: DLD-1 colon
[32] = test system: A549 NSCLC
[33] = test system: SNB-19 CNS
[34] = test system: NCI-H522 lung
[35] = test system: SK-OV-3 ovarian
[36] = test system: MOLT-4 leukemia
[37] = test system: UO-31 renal
[38] = test system: KM12 colon
[39] = test system: SNB-75 CNS
[40] = test system: NCI-H23 lung
[41] = test system: COLO 205 colon
[42] = test system: CCRF-CEM leukemia
[43] = test system: SK-MEL-2 melanoma
[44] = test system: K-562 leukemia
[45] = test system: HCT-116 colon
[46] = test system: EKVX NSCLC
[47] = test system: 786-0 renal
[48] = test system: UACC-62 melanoma
[49] = test system: DMS 114 small cell lung
[50] = test system: HCT-15 colon
[51] = test system: XF 498 CNS
[52] = test system: HT29 colon
[53] = test system: LOX IMVI melanoma
[54] = test system: CAKI-1 renal
[55] = test system: HOP-18 NSCLC
[56] = test system: DMS 273 small cell lung
[57] = test system: SR leukemia

Measured: TGI

O=C(Cc1cc[n+]([O-])cc1)C(=O)Nc1cc(Cl)c(Cl)cc1Cl
> 100 µM: [1] | [2] | [3] | [4] | [5] | [6] | [7] | [8] | [9] | [10] | [11] | [12] | [13] | [14] | [15] | [16] | [17] | [18] | [19] | [20] | [21] | [22] | [23] | [24] | [25] | [26] | [27] | [28] | [29] | [30] | [31] | [32] | [33] | [34] | [35] | [36] | [37] | [38] | [39] | [40] | [41] | [42] | [43] | [44] | [45] | [46] | [47] | [48] | [49] | [50]

CCCCCCc1cc2c(C)c(C)c(=O)oc2cc1OCCCOc1cc2oc(=O)c(C)c(C)c2cc1CCCCCC
> 100 µM: [1] | [2] | [3] | [4] | [7] | [8] | [51] | [9] | [11] | [12] | [13] | [14] | [15] | [16] | [17] | [18] | [19] | [52] | [20] | [21] | [53] | [23] | [24] | [25] | [26] | [27] | [54] | [28] | [29] | [30] | [55] | [31] | [32] | [33] | [34] | [35] | [36] | [37] | [38] | [56] | [57] | [40] | [42] | [43] | [44] | [45] | [46] | [47] | [48] | [49] | [50]

From PubChem BioAssay (NCI)
